The values that follow come from US6890952B2, “Cyclic substituted aminomethyl compounds and medicaments comprising these compounds” (Gruenenthal GmbH, priority 2000, dated 2005).

The test system of data set [1] is phenylquinone-induced writhing reactions. Put plainly: phenylquinone-induced writhing test in mice. In kind it is in vivo, mouse. How it is done: The antinociceptive activity of the compounds according to the invention was investigated in mice in the phenylquinone-induced writhing test, modified by I. C. Hendershot, J. Forsaith, J. Pharmacol. Exp. Ther. 125, 237-240 (1959). Male NMRI mice weighing 25-30 g were employed for this. Groups of 10 animals per substance dose received 0.3 ml/mouse of a 0.02% aqueous solution of phenylquinone (phenylbenzoquinone, Sigma, Deisenhofen; preparation of the solution with the addition of 5% ethanol and storage in a water bath at 45° C.) administered intraperitoneally 10 minutes after intravenous administration of a compound according to the invention. The animals were placed individually in observation cages. The number of pain-induced stretching movements (so-called writhing reactions=straightening of the body with stretching of the hind extremities) was counted by means of a push-button counter for 5-20 minutes after the administration of phenylquinone.
The ED50 values of the writhing reaction were calculated by means of regression analysis (evaluation program, Martens EDV Service, Eckental) from the dose-dependent decrease in writhing reactions compared with animal groups investigated in parallel to which no compound according to the invention was administered.
The majority of the substances were tested in the standard dose of 10 mg/kg. The percentage inhibition (% inhibition) of the writhing reactions by a substance was then calculated according to the following equation: [formula] The results are summarized in table 1 for selected compounds.

Where [2] appears, read: male NMRI mice, standard dose of 10 mg/kg.

In the case of `CN(C)CC1=C(Cc2ccc(Cl)cc2)c2ccc(O)cc2CC1.Cl`, the melting point was 110 °C (dec.).
Consider `CN(C)CC1=C(Cc2ccc(Cl)cc2Cl)c2ccccc2CC1.Cl`, for which the melting point was in the range of 208 to 209 °C.
On the same count and under the same terms, the figure for `CN(C)CC1=C(Cc2ccc(Cl)cc2)c2ccccc2CCC1.Cl` is 240 to 243 °C.
On to `CN(C)CC1CCCc2ccccc2/C1=C/c1ccc(Cl)cc1.Cl` (racemic) [Example 4e, E-(5RS)-[5-(4-Chlorobenzylidene)-6,7,8,9-tetrahydro-5H-benzocyclohepten-6-ylmethyl]-dimethylamine hydrochloride], for which the “Writhing test, mouse, i.v. decrease in writhing reactions (% inhibition)” value in data set [1] (setting [2]) turned out to be 69%.
For `CN(C)CC1CCOc2ccccc2/C1=C/c1cccc(O)c1.Cl` (racemic) [Example 6b, E-(4RS)3-(4-Dimethylaminomethyl-3,4-dihydro-2H-benzo[b]oxepin-5-ylidene-methyl)-phenol hydrochloride], the “Writhing test, mouse, i.v. decrease in writhing reactions (% inhibition)” value in data set [1] (male NMRI mice, dose 21.5 mg/kg as printed in table 1) was found to be 91% [21.5 mg/kg]. In data set [1] (mouse, i.v., dose of 2.15 mg/kg body weight as printed in text), the “inhibition of writhing reactions” value stood at 91%.
As to `CN(C)CC1CCOc2ccccc2/C1=C\c1cccc(O)c1.Cl` (racemic) [Example 6c, Z-(4RS)3-(4-Dimethylaminomethyl-3,4-dihydro-2H-benzo[b]oxepin-5-ylidene-methyl)-phenol hydrochloride], the “Writhing test, mouse, i.v. decrease in writhing reactions (% inhibition)” value in data set [1] (setting [2]) turned out to be 78%.
Same read-out and setting: as for `CN(C)CC1CCOc2ccccc2/C1=C\c1ccc(Cl)cc1.Cl` (racemic) [Example 7c, Z-(4RS) [5-(4-Chlorobenzylidene)-2,3,4,5-tetrahydro-benzo[b]oxepin-4-yl-methyl]-dimethylamine hydrochloride], the figure is 79%.
On to `CN(C)CC1=C(Cc2ccc(Cl)cc2)c2ccccc2CC1.Cl` [Example 2], for which the “Writhing test, mouse, i.v. ED50” value in data set [1] (male NMRI mice, 10 minutes before phenylquinone i.p.) is recorded as 6.85 mg/kg. In data set [1] (setting [2]), the “Writhing test, mouse, i.v. decrease in writhing reactions (% inhibition)” value worked out at 61.5%.
Take `CN(C)CC1=C(Cc2cccc(O)c2)c2ccccc2CC1.Cl` [Example 3, 3-(2-Dimethylaminomethyl-3,4-dihydro-naphth-1-ylmethyl)-phenol hydrochloride]: the “Writhing test, mouse, i.v. decrease in writhing reactions (% inhibition)” value in data set [1] (setting [2]) is listed as 93%.
As for `CN(C)CC1=C(Cc2ccc(Cl)cc2)c2cccc(O)c2CC1.Cl` [Example 4c, 5-(4-Chlorobenzyl)-6-dimethylaminomethyl-7,8-dihydro-naphth-1-ol hydrochloride], the melting point is 136 to 139 °C. Further, in data set [1] (setting [2]), the “Writhing test, mouse, i.v. decrease in writhing reactions (% inhibition)” value amounted to 84%.
Regarding `CN(C)CC1=C(Cc2cccc(O)c2)c2ccccc2OCC1.Cl` [Example 6a, 3-(4-Dimethylaminomethyl-2,3-dihydro-benzo[b]oxepin-5-ylmethyl)-phenol hydrochloride], in data set [1] (setting [2]), the “Writhing test, mouse, i.v. decrease in writhing reactions (% inhibition)” value is listed as 95%.
